Columns and labels:
OATP2B1 [1] = target: T1, OATP2B1 (Homo sapiens, UniProt O94956); conditions: read-out: IC50, reduction of influx of substrates of OATP2B1; cited from earlier work
T1 sequence (O94956 1-709): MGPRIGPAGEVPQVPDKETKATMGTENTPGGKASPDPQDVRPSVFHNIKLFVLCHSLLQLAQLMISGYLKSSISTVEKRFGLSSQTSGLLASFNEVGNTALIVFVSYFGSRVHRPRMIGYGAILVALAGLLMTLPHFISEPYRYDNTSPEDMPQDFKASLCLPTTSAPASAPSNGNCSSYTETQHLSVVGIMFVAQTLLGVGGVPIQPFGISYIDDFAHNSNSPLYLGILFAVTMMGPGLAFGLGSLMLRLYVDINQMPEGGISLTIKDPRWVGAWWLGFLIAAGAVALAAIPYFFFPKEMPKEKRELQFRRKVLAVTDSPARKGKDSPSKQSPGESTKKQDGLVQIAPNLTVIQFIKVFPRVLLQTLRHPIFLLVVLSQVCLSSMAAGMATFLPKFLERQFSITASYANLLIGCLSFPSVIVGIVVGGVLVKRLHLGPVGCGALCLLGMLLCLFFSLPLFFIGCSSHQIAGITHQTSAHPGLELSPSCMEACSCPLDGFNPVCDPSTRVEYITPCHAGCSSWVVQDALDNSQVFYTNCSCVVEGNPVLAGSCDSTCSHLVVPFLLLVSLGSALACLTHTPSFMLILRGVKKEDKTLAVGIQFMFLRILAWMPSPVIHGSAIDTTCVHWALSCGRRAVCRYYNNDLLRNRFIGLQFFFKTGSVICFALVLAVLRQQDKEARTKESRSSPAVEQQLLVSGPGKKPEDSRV

OATP2B1 [2] = target: T1, OATP2B1; experiment: Caco-2 transport of CA with OATP2B1 inhibitor baicalin; type: in vitro ADME; conditions: 6 μM baicalin
P-glycoprotein (Pgp) = P-glycoprotein (Pgp) (Homo sapiens, UniProt P08183); experiment: Caco-2 transport of CA with Pgp inhibitor GF120918; type: in vitro ADME; conditions: 2 μM GF120918
P-glycoprotein (Pgp), sequence (P08183 whole entry): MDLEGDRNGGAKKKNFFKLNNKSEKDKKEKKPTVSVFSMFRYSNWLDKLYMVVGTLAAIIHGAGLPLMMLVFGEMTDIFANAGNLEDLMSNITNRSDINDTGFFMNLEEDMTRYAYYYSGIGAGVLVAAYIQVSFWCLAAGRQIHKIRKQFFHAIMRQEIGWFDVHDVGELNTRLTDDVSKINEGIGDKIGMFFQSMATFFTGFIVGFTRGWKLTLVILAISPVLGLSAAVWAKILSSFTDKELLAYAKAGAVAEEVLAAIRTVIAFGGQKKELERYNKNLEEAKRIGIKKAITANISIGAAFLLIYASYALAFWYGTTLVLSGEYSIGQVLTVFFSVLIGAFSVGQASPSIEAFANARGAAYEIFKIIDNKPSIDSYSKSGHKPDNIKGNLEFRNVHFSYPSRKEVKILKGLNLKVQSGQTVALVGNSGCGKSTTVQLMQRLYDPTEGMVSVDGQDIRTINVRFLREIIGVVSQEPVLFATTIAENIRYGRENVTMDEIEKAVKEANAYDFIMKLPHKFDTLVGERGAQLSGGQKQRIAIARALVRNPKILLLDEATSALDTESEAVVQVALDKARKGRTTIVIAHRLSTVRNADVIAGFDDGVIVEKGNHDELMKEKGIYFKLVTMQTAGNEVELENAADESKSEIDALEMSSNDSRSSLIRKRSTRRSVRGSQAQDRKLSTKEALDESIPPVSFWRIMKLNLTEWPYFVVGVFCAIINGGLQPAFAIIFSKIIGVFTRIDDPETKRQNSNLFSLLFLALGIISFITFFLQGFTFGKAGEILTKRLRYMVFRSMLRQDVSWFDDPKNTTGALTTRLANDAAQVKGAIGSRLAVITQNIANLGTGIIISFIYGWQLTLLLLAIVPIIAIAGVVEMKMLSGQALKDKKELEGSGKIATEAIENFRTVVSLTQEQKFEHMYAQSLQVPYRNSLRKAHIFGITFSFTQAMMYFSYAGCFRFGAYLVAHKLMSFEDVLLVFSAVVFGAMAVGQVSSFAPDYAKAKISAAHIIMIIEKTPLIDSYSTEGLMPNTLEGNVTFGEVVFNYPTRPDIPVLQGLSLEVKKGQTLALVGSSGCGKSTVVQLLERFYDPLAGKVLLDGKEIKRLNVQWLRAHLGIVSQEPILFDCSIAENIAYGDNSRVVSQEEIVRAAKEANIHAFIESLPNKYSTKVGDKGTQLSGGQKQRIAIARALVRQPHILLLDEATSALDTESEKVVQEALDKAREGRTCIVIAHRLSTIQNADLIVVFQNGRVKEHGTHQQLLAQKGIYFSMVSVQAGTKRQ

Decrease of Papp B–A after baicalin treatment (OATP2B1 [2]) [%]	Decrease of Papp B–A after GF120918 treatment (P-glycoprotein (Pgp)) [%]	Compound	IC50 (OATP2B1 [1]) [µM]
		O=C(O)[C@H]1O[C@@H](Oc2cc3oc(-c4ccccc4)cc(=O)c3c(O)c2O)[C@H](O)[C@@H](O)[C@@H]1O [baicalin]	5.6 ± 3.2
63	62	Chicoric acid [CA]	

Reference: paper PMC9304723 (Heliyon, 2022)
